Source: PubChem BioAssay (NCI)
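Test compounds were applied to cells in 96-well plates for 48 hours at 5 doses. GI50 = concentration required for 50% inhibition of growth. The concentration for full growth arrest is given as TGI.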

How the values were obtained:
Test in all cases: DTP human tumour cell line panel, 48 h
[1] = test system: EKVX NSCLC
[2] = test system: CAKI-1 renal
[3] = test system: OVCAR-4 ovarian
[4] = test system: HL-60(TB) leukemia
[5] = test system: HCT-15 colon
[6] = test system: SK-OV-3 ovarian
[7] = test system: HOP-62 NSCLC
[8] = test system: A498 renal
[9] = test system: OVCAR-8 ovarian
[10] = test system: SF-268 CNS

CO/N=C(\C)c1ccc(Nc2cc(-c3ccccc3)nc3c(O)cccc23)cc1
GI50 [1]: 15.9 µM
TGI [1]: 41.7 µM
GI50 [2]: 19.4 µM
TGI [2]: 35.5 µM
GI50 [3]: 19.9 µM
TGI [3]: 50.7 µM
GI50 [4]: 48400 nM
TGI [4]: > 100 µM
GI50 [5]: 16200 nM
TGI [5]: 32.5 µM
GI50 [6]: 18.8 µM
TGI [6]: 35.5 µM
GI50 [7]: 17.6 µM
TGI [7]: 34.8 µM
GI50 [8]: 21.4 µM
TGI [8]: 41.6 µM
GI50 [9]: 13.6 µM
TGI [9]: 33.9 µM

CC(CNC(Cc1ccccc1)c1ccccc1)NC(Cc1ccccc1)c1ccccc1 (stereo not given)
GI50 [1]: 2.47 µM
TGI [1]: 9.16 µM
GI50 [2]: 2.16 µM
TGI [2]: 7.45 µM
GI50 [3]: 2.59 µM
TGI [3]: 10.6 µM
GI50 [4]: 2000 nM
TGI [4]: 4.51 µM
GI50 [5]: 2000 nM
TGI [5]: 4.87 µM
GI50 [6]: 5.34 µM
TGI [6]: 16.8 µM
GI50 [7]: 3.41 µM
TGI [7]: 12.4 µM
GI50 [10]: 3.6 µM
TGI [10]: 14.3 µM
GI50 [8]: 2.26 µM
TGI [8]: 5.02 µM
GI50 [9]: 2.6 µM
TGI [9]: 6.17 µM

COc1cc([C@@H]2c3cc4c(cc3[C@@H](NC(=O)c3ccccc3)C3COC(=O)[C@@H]32)OCO4)cc(OC)c1O (stereo not given in full)
TGI [1]: 87.1 µM
TGI [2]: > 100 µM
TGI [3]: > 100 µM
TGI [4]: 9.44 µM
TGI [5]: > 100 µM
TGI [6]: > 100 µM
TGI [7]: 13 µM
TGI [10]: > 100 µM
TGI [8]: 27 µM
TGI [9]: 37.7 µM

COc1ccc2oc3cccc(NCCN(C)C)c3c(=O)c2c1
TGI [1]: 29.2 µM
TGI [2]: 18.2 µM
TGI [3]: 27.7 µM
TGI [4]: 27.6 µM
TGI [5]: 27.1 µM
TGI [6]: 28.7 µM
TGI [7]: 29.2 µM
TGI [10]: 28.3 µM
TGI [8]: 33.8 µM
TGI [9]: 23.7 µM

CC1OC2CC(=O)OC2C2=C1C(=O)c1c(O)c3c(c(O)c1C2=O)C1CC(O)C3(O)C(C)O1 (stereo not given)
GI50 [1]: 0.534 µM
TGI [1]: 1.8 µM
GI50 [2]: 0.224 µM
TGI [2]: 0.613 µM
GI50 [3]: 0.381 µM
TGI [3]: 1.23 µM
GI50 [4]: 234 nM
TGI [4]: 1.06 µM
GI50 [5]: 367 nM
TGI [5]: 3.69 µM
GI50 [6]: 3.24 µM
TGI [6]: 11.1 µM
GI50 [7]: 0.826 µM
TGI [7]: 2.8 µM
GI50 [10]: 0.303 µM
TGI [10]: 1.15 µM
GI50 [8]: 1.65 µM
TGI [8]: 3.42 µM
GI50 [9]: 0.271 µM
TGI [9]: 3.5 µM

O=C1/C(=C/c2ccc(O)cc2)COc2ccc(-c3ccccc3)cc21
GI50 [1]: 13.4 µM
TGI [1]: 32.1 µM
GI50 [2]: 6.9 µM
TGI [2]: 20.2 µM
GI50 [3]: 14.1 µM
TGI [3]: 31 µM
GI50 [4]: 465 nM
TGI [4]: > 38.2 µM
GI50 [5]: 2890 nM
TGI [5]: 12.4 µM
GI50 [6]: 21.4 µM
TGI [6]: 46.1 µM
GI50 [7]: 19.3 µM
TGI [7]: 36.4 µM
GI50 [10]: 5.49 µM
TGI [10]: 22.8 µM
GI50 [8]: 11.5 µM
TGI [8]: 23.8 µM
GI50 [9]: 9.27 µM
TGI [9]: 23.1 µM

O=C(CCl)N1c2ccccc2Sc2c1ccc1ccccc21
GI50 [1]: 12.5 µM
TGI [1]: 25.8 µM
GI50 [2]: 2.05 µM
TGI [2]: 5.04 µM
GI50 [3]: 2.56 µM
TGI [3]: 6.18 µM
GI50 [4]: 3060 nM
TGI [4]: 8.98 µM
GI50 [5]: 1920 nM
TGI [5]: 4.83 µM
GI50 [6]: 13.4 µM
TGI [6]: 26.2 µM
GI50 [7]: 3.29 µM
TGI [7]: 12.9 µM
GI50 [10]: 1.88 µM
TGI [10]: 3.47 µM
GI50 [8]: 12.9 µM
TGI [8]: 25.9 µM
GI50 [9]: 2.13 µM
TGI [9]: 5.48 µM

CN(C)c1ccc2cc(-c3ccccc3F)c(N)nc2c1
GI50 [1]: 6.57 µM
TGI [1]: 26.7 µM
GI50 [2]: 3.17 µM
TGI [2]: 21 µM
GI50 [3]: 3.83 µM
TGI [3]: 36 µM
GI50 [4]: 419 nM
TGI [4]: 9.36 µM
GI50 [5]: 469 nM
TGI [5]: 13.2 µM
GI50 [6]: 2.52 µM
TGI [6]: 12.2 µM
GI50 [7]: 1.68 µM
TGI [7]: 12.7 µM
GI50 [10]: 3.89 µM
TGI [10]: 19.8 µM
GI50 [8]: 2.32 µM
TGI [8]: 15.2 µM
GI50 [9]: 3.71 µM
TGI [9]: 15.8 µM

CN(CCOc1ccc(C#N)cc1)CCOc1ccc(C#N)cc1
GI50 [1]: 63.2 µM
TGI [1]: > 100 µM
GI50 [2]: 74.6 µM
TGI [2]: > 100 µM
GI50 [3]: 67.5 µM
TGI [3]: > 100 µM
GI50 [4]: 20700 nM
TGI [4]: > 100 µM
GI50 [5]: 25400 nM
TGI [5]: > 100 µM
GI50 [6]: > 100 µM
TGI [6]: > 100 µM
GI50 [7]: > 100 µM
TGI [7]: > 100 µM
GI50 [10]: > 100 µM
TGI [10]: > 100 µM
GI50 [8]: 14.8 µM
TGI [8]: > 100 µM
GI50 [9]: 29 µM
TGI [9]: > 100 µM

COc1ccc(-c2cn(-c3ccccc3)c(-c3ccccc3)n2)cc1OC
GI50 [1]: 12.1 µM
TGI [1]: 29.1 µM
GI50 [2]: 11.2 µM
TGI [2]: 27 µM
GI50 [3]: 10.9 µM
TGI [3]: 32.9 µM
GI50 [4]: 2340 nM
TGI [4]: 6.7 µM
GI50 [5]: 2620 nM
TGI [5]: 11.2 µM
GI50 [6]: 7.44 µM
TGI [6]: 20.9 µM
GI50 [7]: 4.44 µM
TGI [7]: 17.9 µM
GI50 [10]: 3.35 µM
TGI [10]: 13.5 µM
GI50 [8]: 18.7 µM
TGI [8]: 34.8 µM
GI50 [9]: 3.01 µM
TGI [9]: 10.8 µM

COc1cc(/C=C/C(=O)c2sc(Nc3ccccc3)nc2C)ccc1O
TGI [1]: > 100 µM
TGI [2]: > 100 µM
TGI [4]: > 100 µM
TGI [5]: > 100 µM
TGI [6]: > 100 µM
TGI [7]: > 100 µM
TGI [10]: > 100 µM
TGI [8]: > 100 µM
TGI [9]: > 100 µM

COc1ccc(O)c(C#N)c1C#N
TGI [1]: > 100 µM
TGI [2]: > 100 µM
TGI [3]: > 100 µM
TGI [4]: > 100 µM
TGI [5]: > 100 µM
TGI [6]: > 100 µM
TGI [7]: > 100 µM
TGI [10]: > 100 µM
TGI [8]: > 100 µM
TGI [9]: > 100 µM

CN(C)CCCN1CCc2c([nH]c3ccccc23)C1c1cccnc1 (stereo not given)
TGI [1]: > 100 µM
TGI [2]: > 100 µM
TGI [3]: > 100 µM
TGI [4]: > 100 µM
TGI [5]: > 100 µM
TGI [6]: > 100 µM
TGI [7]: > 100 µM
TGI [8]: > 100 µM
TGI [9]: > 100 µM

Clc1nc(Cl)c2ncn(Cc3ccc(COc4cccc(OCc5ccc(Cn6cnc7c(Cl)nc(Cl)nc76)cc5)c4)cc3)c2n1
GI50 [1]: 91.4 µM
TGI [1]: > 100 µM
GI50 [2]: > 100 µM
TGI [2]: > 100 µM
GI50 [3]: 15.1 µM
TGI [3]: > 100 µM
GI50 [4]: 13500 nM
TGI [4]: 34.3 µM
GI50 [5]: 28800 nM
TGI [5]: > 100 µM
GI50 [6]: > 100 µM
TGI [6]: > 100 µM
GI50 [7]: 63.4 µM
TGI [7]: > 100 µM
GI50 [10]: > 100 µM
TGI [10]: > 100 µM
GI50 [8]: 39.2 µM
TGI [8]: > 100 µM
GI50 [9]: 33.6 µM
TGI [9]: > 100 µM

CC(C)NC(=O)OCCS(=O)c1c(Cl)c(Cl)nn1C (stereo not given)
TGI [1]: > 100 µM
TGI [2]: > 100 µM
TGI [3]: > 100 µM
TGI [4]: > 100 µM
TGI [5]: 43.8 µM
TGI [6]: > 100 µM
TGI [7]: > 100 µM
TGI [10]: > 100 µM
TGI [8]: > 100 µM
